Experimental data taken from US9809623B2, “α4β7 peptide monomer and dimer antagonists” (Protagonist Therapeutics, Inc., priority 2014, dated 2017).
Like-named read-outs stand apart in the source and are kept apart here. Numbered stars: 1 amine (or outer) side, 2 acyl side, 3 side chain; on linkers, the order of the positions; unused ones are H or OH. Bridge positions count the residues as written; N and C are the ends. Square brackets hold non-standard residues; d marks the D form. Peptide text beside a SMILES is read from it. I, II: the chains in the order shown. Phe(4-COOH) = N[C@@H](Cc1ccc(C(=O)O)cc1)C(=O)O; Phe(4-tBu) = CC(C)(C)c1ccc(C[C@H](N)C(=O)O)cc1; Diglycolyl = O=C(COCC(=O)[*:2])[*:1]; NMeR = CN[C@@H](CCCNC(=N)N)C(=O)O; β3hE = N[C@@H](CCC(=O)O)CC(=O)O; NMeK = CN[C@@H](CCCCN)C(=O)O; Pen = CC(C)(S)[C@H](N)C(=O)O

Legend:
α4β7 = α4β7 (Homo sapiens, UniProt P13612+P26010); assay: α4β7-MAdCAM Cell Adhesion Assay (RPMI 8866 human cells); assay type: cell-based; design: host or cells: RPMI 8866 human B lymphoblastoid cells
In short: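 Washed RPMI 8866 cells (200,000/well) in DMEM with 0.1% BSA, 10 mM HEPES pH 7, 1 mM MnCl2 adhered to rh MAdCAM-1/Fc-coated wells with serially diluted peptides, 30-45 min at 37 °C. After three washes, bound cells quantified by MTT, A570, cell-free background subtracted for dose response.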

rh integrin α4β7 = target: T1, rh integrin α4β7 (Homo sapiens, UniProt P13612+P26010); assay: α4β7-MAdCAM Competition ELISA; assay type: binding
T1 construct: purchased R&D Systems 5397-A30
In short: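 Recombinant human α4β7 was captured on nickel plates at 800 ng/well. Peptide in 3-fold serial dilution (final top 10 μM) competed with MAdCAM-1 (final 10 nM) for 1 h at room temperature in 50 mM Tris pH 7.6, 150 mM NaCl, 1 mM MnCl2 or MgCl2. Bound MAdCAM-1 was detected with anti-human IgG1-HRP/TMB at A450.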

[1] = Simulated Intestinal Fluid (SIF) Stability Assay; assay type: in vitro ADME, porcine; details: pig, simulated intestinal fluid (SIF) with 1% porcine pancreatin
In short: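 Peptides (22 μM final) incubated at 37 °C in FASSIF (pH 6.5) with 1% porcine pancreatin; aliquots quenched at various times and analyzed by LC-MS/MS against internal standard. Half-life from first-order exponential decay fit of percent remaining.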

[2] = Table 4-B, read-out: Cell Adhesion α4β7 IC50
[3] = Table 4-B, read-out: ELISA α4β7 IC50
[4] = pH 6.5, Table 4-C, t1/2, > means assay stopped at that time, read-out: SIF (porcine) Min
[5] = Table 3-B, Potency (α4β7), range classes, read-out: α4β7 cell (Hu) IC50
[6] = Table 3-B, Potency (α4β7), range classes, read-out: α4β7 ELISA IC50

Sequence of α4β7 (P13612 34-1032): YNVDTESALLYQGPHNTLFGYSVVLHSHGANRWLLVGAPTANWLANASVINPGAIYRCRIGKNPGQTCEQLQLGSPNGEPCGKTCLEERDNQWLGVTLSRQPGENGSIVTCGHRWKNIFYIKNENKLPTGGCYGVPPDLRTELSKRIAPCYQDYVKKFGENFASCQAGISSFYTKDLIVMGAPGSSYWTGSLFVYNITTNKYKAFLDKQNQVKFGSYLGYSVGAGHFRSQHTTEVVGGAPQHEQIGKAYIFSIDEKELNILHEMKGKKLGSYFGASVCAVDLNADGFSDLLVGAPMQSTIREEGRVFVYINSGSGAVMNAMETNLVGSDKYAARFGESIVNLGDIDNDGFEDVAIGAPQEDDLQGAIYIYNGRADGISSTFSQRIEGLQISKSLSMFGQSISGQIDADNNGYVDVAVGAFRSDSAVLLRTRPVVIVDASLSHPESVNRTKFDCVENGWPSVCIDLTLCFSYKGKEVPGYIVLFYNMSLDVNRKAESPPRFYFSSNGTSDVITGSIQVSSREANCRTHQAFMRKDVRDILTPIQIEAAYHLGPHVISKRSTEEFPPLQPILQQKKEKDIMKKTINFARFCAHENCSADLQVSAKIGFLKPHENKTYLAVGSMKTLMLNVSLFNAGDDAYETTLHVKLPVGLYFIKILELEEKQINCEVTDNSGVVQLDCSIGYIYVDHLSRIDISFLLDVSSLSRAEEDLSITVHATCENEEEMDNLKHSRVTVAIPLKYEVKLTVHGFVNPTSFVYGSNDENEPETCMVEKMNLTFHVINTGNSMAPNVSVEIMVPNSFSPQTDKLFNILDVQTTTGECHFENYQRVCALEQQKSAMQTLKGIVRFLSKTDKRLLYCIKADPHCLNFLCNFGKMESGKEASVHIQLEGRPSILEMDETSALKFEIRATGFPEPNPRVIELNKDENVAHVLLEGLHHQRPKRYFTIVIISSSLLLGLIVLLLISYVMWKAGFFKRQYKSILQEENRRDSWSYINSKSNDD
Sequence of α4β7 (P26010 20-798): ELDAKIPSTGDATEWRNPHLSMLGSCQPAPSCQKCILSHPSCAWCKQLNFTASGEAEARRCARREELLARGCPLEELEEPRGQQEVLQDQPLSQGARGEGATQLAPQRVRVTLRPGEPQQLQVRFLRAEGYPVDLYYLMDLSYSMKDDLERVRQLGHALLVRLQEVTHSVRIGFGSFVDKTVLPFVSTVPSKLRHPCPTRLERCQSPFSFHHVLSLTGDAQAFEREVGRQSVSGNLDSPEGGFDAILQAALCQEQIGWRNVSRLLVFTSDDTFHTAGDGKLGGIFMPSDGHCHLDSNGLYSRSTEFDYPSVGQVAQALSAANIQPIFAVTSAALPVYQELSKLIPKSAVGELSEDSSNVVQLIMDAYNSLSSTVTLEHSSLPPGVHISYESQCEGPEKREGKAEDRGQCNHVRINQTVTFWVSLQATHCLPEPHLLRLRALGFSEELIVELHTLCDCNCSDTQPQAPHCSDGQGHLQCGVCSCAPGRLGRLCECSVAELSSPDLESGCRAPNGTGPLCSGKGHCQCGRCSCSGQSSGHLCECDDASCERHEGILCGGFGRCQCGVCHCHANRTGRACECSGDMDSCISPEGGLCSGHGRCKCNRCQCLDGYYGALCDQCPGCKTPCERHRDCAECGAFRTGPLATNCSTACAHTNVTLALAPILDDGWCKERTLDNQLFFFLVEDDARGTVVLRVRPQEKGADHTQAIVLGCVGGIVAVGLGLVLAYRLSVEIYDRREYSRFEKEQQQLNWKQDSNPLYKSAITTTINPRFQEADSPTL
T1 sequence (P13612 34-977 limits assumed): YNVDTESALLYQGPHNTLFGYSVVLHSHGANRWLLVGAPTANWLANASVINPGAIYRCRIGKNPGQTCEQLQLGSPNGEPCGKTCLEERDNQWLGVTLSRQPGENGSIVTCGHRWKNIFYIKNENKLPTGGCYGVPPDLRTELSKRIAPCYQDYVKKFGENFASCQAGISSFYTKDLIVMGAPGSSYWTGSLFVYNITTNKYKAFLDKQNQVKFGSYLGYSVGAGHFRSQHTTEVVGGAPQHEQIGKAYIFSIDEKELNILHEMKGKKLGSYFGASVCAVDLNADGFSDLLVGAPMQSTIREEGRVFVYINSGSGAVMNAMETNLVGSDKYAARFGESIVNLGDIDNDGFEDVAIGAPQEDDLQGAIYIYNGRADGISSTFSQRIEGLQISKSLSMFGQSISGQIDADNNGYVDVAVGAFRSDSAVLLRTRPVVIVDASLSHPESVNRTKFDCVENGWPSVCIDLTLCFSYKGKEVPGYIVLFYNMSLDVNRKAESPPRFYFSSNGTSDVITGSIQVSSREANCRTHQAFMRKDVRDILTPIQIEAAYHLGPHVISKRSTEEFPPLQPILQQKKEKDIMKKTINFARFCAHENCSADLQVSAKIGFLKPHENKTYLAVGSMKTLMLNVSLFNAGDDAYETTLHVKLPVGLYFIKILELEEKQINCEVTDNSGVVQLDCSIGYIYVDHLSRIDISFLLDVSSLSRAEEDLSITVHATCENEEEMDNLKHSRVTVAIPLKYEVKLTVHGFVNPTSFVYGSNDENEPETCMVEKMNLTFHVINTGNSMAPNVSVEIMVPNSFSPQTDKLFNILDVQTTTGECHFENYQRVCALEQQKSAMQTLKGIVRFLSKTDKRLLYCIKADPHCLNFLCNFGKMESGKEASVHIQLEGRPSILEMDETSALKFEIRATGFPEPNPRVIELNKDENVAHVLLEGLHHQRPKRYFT
T1 sequence (P26010 20-723 limits assumed): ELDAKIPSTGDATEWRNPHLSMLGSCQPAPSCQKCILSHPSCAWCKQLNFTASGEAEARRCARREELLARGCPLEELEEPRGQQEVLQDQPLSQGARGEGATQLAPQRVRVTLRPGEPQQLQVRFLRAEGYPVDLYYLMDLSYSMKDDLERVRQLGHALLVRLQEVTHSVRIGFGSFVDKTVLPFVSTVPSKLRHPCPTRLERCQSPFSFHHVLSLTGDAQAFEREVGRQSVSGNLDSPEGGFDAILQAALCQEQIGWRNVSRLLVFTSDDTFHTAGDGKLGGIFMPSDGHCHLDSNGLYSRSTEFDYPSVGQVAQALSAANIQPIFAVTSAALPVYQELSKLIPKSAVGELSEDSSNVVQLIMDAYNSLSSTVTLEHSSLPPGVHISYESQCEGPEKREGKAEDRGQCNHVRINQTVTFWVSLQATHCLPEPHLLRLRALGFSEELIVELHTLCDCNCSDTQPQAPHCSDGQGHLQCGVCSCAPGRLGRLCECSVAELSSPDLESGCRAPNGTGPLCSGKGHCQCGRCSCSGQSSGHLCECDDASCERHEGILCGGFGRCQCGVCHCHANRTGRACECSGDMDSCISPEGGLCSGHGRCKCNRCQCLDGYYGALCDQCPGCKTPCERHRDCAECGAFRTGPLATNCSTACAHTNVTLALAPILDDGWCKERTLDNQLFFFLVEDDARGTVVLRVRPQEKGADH

Structure (SMILES) | IC50 (α4β7; [2]) | IC50 (rh integrin α4β7; [3]) | half-life at 22 μM [1, 4] | IC50 (α4β7; [5]) | IC50 (rh integrin α4β7; [6]) | half-life at 22 μM ([1]; pH 6.5, Table 3-B, > means experiment was stopped at that time and half life was not reached, read-out: Stabilty SIF t1/2) | half-life at 22 μM ([1]; pH 6.5, Table 3-B, alone or in parentheses after >360, read-out: Stabilty SIF t1/2, in hr (converted))
CC(=O)N[C@@H]1C(=O)N(C)[C@@H](CCCNC(=N)N)C(=O)N[C@@H](CO)C(=O)N[C@@H](CC(=O)O)C(=O)N[C@@H]([C@@H](C)O)C(=O)N[C@@H](CC(C)C)C(=O)N[C@H](C(=O)N[C@@H](Cc2c[nH]c3ccccc23)C(=O)N[C@@H](CCC(=O)O)C(=O)N[C@H](CCCCNC(=O)COCC(=O)NCCCC[C@@H](NC(=O)[C@H](CCC(=O)O)NC(=O)[C@H](Cc2c[nH]c3ccccc23)NC(=O)[C@H]2NC(=O)[C@H](CC(C)C)NC(=O)[C@H]([C@@H](C)O)NC(=O)[C@H](CC(=O)O)NC(=O)[C@H](CO)NC(=O)[C@H](CCCNC(=N)N)N(C)C(=O)[C@@H](NC(C)=O)C(C)(C)SSC2(C)C)C(N)=O)C(N)=O)C(C)(C)SSC1(C)C [compound 217, (Ac-Pen-N-Me-R-S-D-T-L-Pen-W-E-k-NH2)2-DIG] (I: Ac-[Pen][NMeR]SDTL[Pen]WE[dK]-NH2 / II: Ac-[Pen][NMeR]SDTL[Pen]WE[dK]-NH2; disulfide I:1-I:7, II:1-II:7 (inferred); linker I:10-II:10 via Diglycolyl (inferred)) | 3.2 nM | 2.3 nM | 2.02 h | – | – | – | –
CC(=O)N[C@@H]1C(=O)N(C)[C@@H](CCCNC(=N)N)C(=O)N[C@@H](CO)C(=O)N[C@@H](CC(=O)O)C(=O)N[C@@H]([C@@H](C)O)C(=O)N[C@@H](CC(C)C)C(=O)N[C@H](C(=O)N[C@@H](Cc2ccc(C(=O)O)cc2)C(=O)N[C@@H](CCC(=O)O)C(=O)N(C)[C@@H](CCCCNC(=O)COCC(=O)NCCCC[C@@H](C(N)=O)N(C)C(=O)[C@H](CCC(=O)O)NC(=O)[C@H](Cc2ccc(C(=O)O)cc2)NC(=O)[C@H]2NC(=O)[C@H](CC(C)C)NC(=O)[C@H]([C@@H](C)O)NC(=O)[C@H](CC(=O)O)NC(=O)[C@H](CO)NC(=O)[C@H](CCCNC(=N)N)N(C)C(=O)[C@@H](NC(C)=O)C(C)(C)SSC2(C)C)C(N)=O)C(C)(C)SSC1(C)C [compound 147] (I: Ac-[Pen][NMeR]SDTL[Pen][Phe(4-COOH)]E[NMeK]-NH2 / II: Ac-[Pen][NMeR]SDTL[Pen][Phe(4-COOH)]E[NMeK]-NH2; disulfide I:1-I:7, II:1-II:7; linker I:10-II:10 via Diglycolyl) | – | – | – | < 10 nM | < 10 nM | > 5 h | –
CC(=O)N[C@H]1CSSC[C@@H](C(=O)NCC(=O)N[C@@H](CCC(=O)O)C(=O)N[C@@H](CCCCNC(=O)COCC(=O)NCCCC[C@H](NC(=O)[C@H](CCC(=O)O)NC(=O)CNC(=O)[C@@H]2CSSC[C@H](NC(C)=O)C(=O)N(C)[C@@H](CCCNC(=N)N)C(=O)N[C@@H](CO)C(=O)N[C@@H](CC(=O)O)C(=O)N[C@@H]([C@@H](C)O)C(=O)N[C@@H](CC(C)C)C(=O)N2)C(=O)O)C(=O)O)NC(=O)[C@H](CC(C)C)NC(=O)[C@H]([C@@H](C)O)NC(=O)[C@H](CC(=O)O)NC(=O)[C@H](CO)NC(=O)[C@H](CCCNC(=N)N)N(C)C1=O [compound 201, (Ac-C-N-Me-R-S-D-T-L-C-G-E-K-OH)2-DIG] (I: Ac-C[NMeR]SDTLCGEK-OH / II: Ac-C[NMeR]SDTLCGEK-OH; disulfide I:1-I:7, II:1-II:7 (inferred); linker I:10-II:10 via Diglycolyl (inferred)) | 28 nM | 1 nM | 0.3 h | – | – | – | –
CC(=O)N[C@H]1CSSC[C@@H](C(N)=O)NC(=O)[C@H](CC(C)C)NC(=O)[C@H]([C@@H](C)O)NC(=O)[C@H](CC(=O)O)NC(=O)[C@H](CO)NC(=O)[C@H](CCCNC(=N)N)NC1=O [compound 195, Ac-C-R-S-D-T-L-C-NH2] (Ac-CRSDTLC-NH2; disulfide 1-7) | 1220 nM | 97 nM | < 0.0167 h | – | – | – | –
CC(=O)N[C@@H]1C(=O)N(C)[C@@H](CCCNC(=N)N)C(=O)N[C@@H](CO)C(=O)N[C@@H](CC(=O)O)C(=O)N[C@@H]([C@@H](C)O)C(=O)N[C@@H](CC(C)C)C(=O)N[C@H](C(=O)N[C@@H](Cc2ccc(C(C)(C)C)cc2)C(=O)N[C@@H](CCC(=O)O)CC(=O)N[C@H](CCCCN)C(N)=O)C(C)(C)SSC1(C)C [compound 153] (Ac-[Pen][NMeR]SDTL[Pen][Phe(4-tBu)][β3hE][dK]-NH2; disulfide 1-7) | – | – | – | 10 to 25 nM | 10 to 25 nM | – | 13.6 h
